These are literature values, as cited in patent US6409990B1, “Macromolecular carrier for drug and diagnostic agent delivery” (The Regents of the University of California, priority 1999, dated 2002).

The structures appear in SMILES notation.

For the series the following is noted: similar time postinjection; Grist TM et al.

Regarding `O=C([O-])CN(CCN(CC(=O)[O-])C[C@H](COP(=O)([O-])OC1CCC(c2ccccc2)(c2ccccc2)CC1)N(CC(=O)[O-])CC(=O)[O-])CC(=O)[O-].[Gd+3].[H+].[H+].[H+]` [MS-325], the “typical CNR in the human aorta” value is given as 42.
